The test system of the test is MC38 tumors. Put plainly: MC38 tumor model in ALK5^ΔCD8 mice, survival and tumor growth. The format is in vivo, mouse. The note with it: addition of LY2157299 in ALK5^ΔCD8 mice with MC38 tumors, FIGS. 5B and 5C. As to the method:
FIG. 5A is a schematic showing the treatment strategy in the MC38 tumor model. C57BL/6 Wild-type (n=6-9/group) and ALK5^ΔCD8 (n=4-10/group) mice were implanted subcutaneously with MC38 tumor cells followed four days later by injection of some groups with anti-CD8a mAb to specifically deplete CD8^+ T cells. In other groups, mice also received LY2157299 via oral gavage twice daily (150 mg/kg) for seven days. Survival of mice was monitored until day 90 (FIG. 5B). […] The number of tumors cured over the total number of tumor-bearing mice is shown in the top right of each graph. Data from a representative experiment is shown reflective of two independent experiments total. ***=p<0.001.
Animal studies and cell culture: C57BL/6, BALB/c, CD8Cre, Lyz2Cre, and Foxp3-eGFP-CreERT2 mice were purchased from the Jackson Laboratories (Bar Harbor, Maine). ALK5flox/flox mice were a generous gift from Andrew Weinberg (Providence Cancer Center). All transgenic mice were on C57BL/6 background. […] Tumors were measured 3×/week until they reached the survival end-point of 144 mm^2. […] Following single cell preparation, cells were washed and resuspended in FACS buffer (1×PBS, 1% BSA, 2 mM EDTA) and counted prior to FACS staining using a Guava EasyCyte cytometer (Millipore). […]
Whether the improved survival and radiosensitivity observed in ALK5^ΔCD8 mice was dependent on CD8^+ T cells was next evaluated. […]

Take `Cc1cccc(-c2nn3c(c2-c2ccnc4ccc(C(N)=O)cc24)CCC3)n1` [LY2157299]: the “survival or tumor growth kinetics” value is reported as “no improvement in survival or tumor growth kinetics”.
